Measurements from patent publication US10981932B2, “Macrocyclic indole derivatives” (Bayer Aktiengesellschaft, priority 2016, dated 2021).
Values joined by “and” are separate entries in the source; they are usually repeats but may differ in a detail not shown here. Equal entries are not always repeated. Where two headings read alike, the source gives them in different places.

Tests used:
SUDHL10 [1] = test: Induction of caspase-3/7 activity (Caspase-Glo 3/7), SUDHL10; assay type: cell-based; conditions: caspase-3/7 induction, SUDHL10 cells, 3 h treatment, median
How it was run: (§1)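 Caspase-Glo 3/7 luminescence, 3 h compound exposure, 37 °C, humidified. Minus medium-only blank. EC50 fit: C0=1, plateau = reference max induction.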

MCL-1 = MCL-1 (Homo sapiens, UniProt Q07820); test: Protein-protein interaction assay MCL-1/Noxa BH3 peptide (MCL-1 assay), TR-FRET; assay type: binding; conditions: MBP-MCL-1 / Noxa BH3-derived peptide, median
How it was run: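 Displacement of the biotinylated Noxa BH3 peptide from MBP-tagged human MCL-1 (1 nM) is detected by time-resolved FRET. Compounds are tested in duplicate across eleven concentrations up to 20 μM, incubated 1 h at 22 °C and overnight at 4 °C, and IC50 is fitted with a four-parameter equation.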

SUDHL5 [2] = test: Anti-proliferative effect (CellTiter-Glo, 72 h), SUDHL5; assay type: cell-based; conditions: SUDHL5 cells, antiproliferation, 72 h incubation, median, read-out: Antiproli SUDHL5 [M] (median)
How it was run: (§2)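 CTG luminescence read-out after 72 h compound exposure, 37 °C, humidified. Time-zero reference plate read at plating.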

SUDHL5 [3] = test: Induction of cytotoxicity (CellTiter-Glo, 5 h), SUDHL5
SUDHL10 [4] = test: Anti-proliferative effect (CellTiter-Glo, 72 h), SUDHL10; assay type: cell-based; conditions: SUDHL10 cells, antiproliferation, 72 h incubation, median, read-out: Antiproli SUDHL10 [M] (median)
How it was run: as §2

SUDHL10 [5] = test: Induction of cytotoxicity (CellTiter-Glo, 5 h), SUDHL10
SUDHL5 [6] = test: Induction of caspase-3/7 activity (Caspase-Glo 3/7), SUDHL5; assay type: cell-based; conditions: caspase-3/7 induction, SUDHL5 cells, 3 h treatment, median
How it was run: as §1

OPM2 = test: Anti-proliferative effect (CellTiter-Glo, 72 h), OPM2; assay type: cell-based; conditions: OPM2 cells, median, read-out: IC50 antiproliferation assay OPM2 [M] (median)
How it was run: as §2

A2780 = test: Anti-proliferative effect (CellTiter-Glo, 72 h), A2780; assay type: cell-based; conditions: A2780 cells, median, read-out: IC50 antiproliferation assay A2780 [M] (median)
How it was run: as §2

[7] = Homo sapiens, SU-DHL-5, 5 h, read-out: Cytotox SUDHL5 [M] (median), SUDHL5 cells, cytotoxicity induction, CellTiter-Glo, 5 h incubation, median
[8] = Homo sapiens, SU-DHL10, 5 h, read-out: Cytotox SUDHL10 [M] (median), SUDHL10 cells, cytotoxicity induction, CellTiter-Glo, 5 h incubation, median
[9] = read-out: Cytotox SUDHL5 [M] (median), SUDHL5 cells, cytotoxicity induction, CellTiter-Glo, 5 h incubation, median
[10] = read-out: Cytotox SUDHL10 [M] (median), SUDHL10 cells, cytotoxicity induction, CellTiter-Glo, 5 h incubation, median

Sequence of MCL-1 (Q07820 whole entry): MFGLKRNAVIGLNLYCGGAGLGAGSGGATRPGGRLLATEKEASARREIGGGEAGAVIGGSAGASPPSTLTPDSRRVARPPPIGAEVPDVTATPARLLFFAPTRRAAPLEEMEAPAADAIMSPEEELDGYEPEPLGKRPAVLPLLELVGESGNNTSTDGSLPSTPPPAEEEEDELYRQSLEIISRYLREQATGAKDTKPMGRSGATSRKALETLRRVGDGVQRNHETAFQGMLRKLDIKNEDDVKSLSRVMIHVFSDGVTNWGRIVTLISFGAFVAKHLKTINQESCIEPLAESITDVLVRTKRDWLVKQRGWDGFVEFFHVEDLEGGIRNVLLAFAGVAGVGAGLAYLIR

SMILES	EC50 (SUDHL10 [1]; Homo sapiens, SU-DHL10, 3 h) [µM]	IC50 (MCL-1) [µM]	IC50 (SUDHL5 [2]; Homo sapiens, SU-DHL-5, 72 h) [M]	IC50 (SUDHL5 [3]; [7]) [M]	IC50 (SUDHL10 [4]; Homo sapiens, SU-DHL10, 72 h) [M]	IC50 (SUDHL10 [5]; [8]) [M]	EC50 (SUDHL5 [6]; Homo sapiens, SU-DHL-5, 3 h) [µM]	IC50 (OPM2; Homo sapiens, OPM-2, 72 h) [M]	IC50 (A2780; Homo sapiens, A2780, 72 h) [M]	EC50 (SUDHL10 [1])	IC50 (SUDHL5 [2]) [M]	IC50 (SUDHL5 [3]; [9])	IC50 (SUDHL10 [4]) [M]	EC50 (SUDHL5 [6]) [µM]	IC50 (OPM2) [M]	IC50 (A2780) [M]	IC50 (SUDHL10 [5]; [10])
CN(C)S(=O)(=O)N1CCN(c2ccc(OCc3nn(C)c4c3-c3cccc5c(CCCOc6cccc7ccccc67)c(C(=O)O)n(c35)CC=CCOC4)cc2)CC1 (racemic) [Example 1-17, (rac)-(E/Z)-3-({4-([4-(dimethylsulfamoyl)piperazin-1-yl]phenoxy}methyl)-1-methyl-7-[3-(naphthalen-1-yloxy)propyl]-1,10,13,15-tetrahydropyrazolo[4′,3′:9,10][1,6]oxazacycloundecino[8,7,6-hi]indole-8-carboxylic Acid]	4.39	0.0127	2.99e-06	4.36e-06	4.25e-06	6.88e-06	3.73	4.37e-06	8.94e-06	–	–	–	–	–	–	–	–
Cn1nc(COc2ccc(S(C)(=O)=O)cc2)c2c1COCCCCn1c(C(=O)O)c(CCCOc3cccc4ccccc34)c3cccc-2c31 (single isomer, unassigned) [Example 1-55, (−)-1-methyl-3-{[4-(methylsulfonyl)phenoxy]methyl}-7-[3-(naphthalen-1-yloxy)propyl]-1,10,11,12,13,15-hexahydropyrazolo[4′,3′:9,10][1,6]oxazacycloundecino[8,7,6-hi]indole-8-carboxylic Acid]	–	0.167	–	–	–	1.73e-05	–	> 3.3e-05	2.59e-05	> 33 µM	1.34e-05	> 3.3e-05 M	9.09e-06	> 33	–	–	–
CN1CCCn2c(C(=O)O)c(CCCOc3cccc4ccccc34)c3cccc(c32)-c2c(COc3ccc(N4CCOCC4)cc3)nn(C)c2C1 (single isomer, unassigned) [Example 1-88, (+)-7,9-dimethyl-11-{[4-(morpholin-4-yl)phenoxy]methyl}-1-[3-(naphthalen-1-yloxy)propyl]-4,5,6,7,8,9-hexahydropyrazolo[3′,4′:7,8][1,5]diazecino[9,10,1-hi]indole-2-carboxylic Acid]	–	0.00789	> 3.3e-05	–	> 3.3e-05	6.19e-06	6.03	> 3.3e-05	> 3.3e-05	6.35 µM	–	5.9e-06 M	–	–	–	–	–
CCN(CC)S(=O)(=O)N1CCN(c2ccc(OCc3nn(C)c4c3-c3cccc5c(CCCOc6cccc7ccccc67)c(C(=O)O)n(c35)CCCCOC4)cc2)CC1 (single isomer, unassigned; enantiomer 1) [Example 1-4, 3-({4-[4-(diethylsulfamoyl)piperazin-1-yl]phenoxy}methyl)-1-methyl-7-[3-(naphthalen-1-yloxy)propyl]-1,10,11,12,13,15-hexahydropyrazolo[4′,3′:9,10][1,6]oxazacycloundecino[8,7,6-hi]indole-8-Carboxylic acid (Enantiomer 1)]	5.18	0.304	–	–	1.73e-06	7.42e-06	–	–	–	–	2.43e-06	1.83e-05 M	–	15.2	3.36e-06	2.47e-06	–
Cc1ccc2c(CCCOc3cccc4ccccc34)c(C(=O)O)n3c2c1-c1c(nn(C)c1C)CN(C)CCC3 (racemic) [Example 072, (rac)-7,10,11,12-tetramethyl-1-[3-(naphthalen-1-yloxy)propyl]-4,5,6,7,8,10-hexahydropyrazolo[3′,4′:7,8][1,5]diazecino[9,10,1-hi]indole-2-carboxylic Acid]	4.91	0.0034	1.11e-06	3.43e-06	5.65e-06	6.12e-06	4.54	8.23e-06	9.51e-06	–	–	–	–	–	–	–	–
Cc1nn(C)c2c1-c1cccc3c(CCCOc4cccc5ccccc45)c(C(=O)O)n(c13)CCCN(c1ccc(N3CCOCC3)cc1)C2 (single isomer, unassigned; enantiomer 2) [Example 1-100, 9,11-Dimethyl-7-[4-(morpholin-4-yl)phenyl]-1-[3-(1-naphthyloxy)propyl]-4,5,6,7,8,9-hexahydropyrazolo[3′,4′:7,8][1,5]diazecino[9,10,1-hi]indole-2-carboxylic Acid (Enantiomer 2)]	–	0.0359	–	–	–	–	–	–	–	> 33 µM and 30.6 µM	9.42e-06	> 3.3e-05 M	6.21e-06	28.4	1.94e-05	1.38e-05	> 3.3e-05 M and 3.29e-05 M
CN1CCCn2c(C(=O)O)c(CCCOc3cccc4ccccc34)c3cccc(c32)-c2c(COc3ccc(N4CCN(S(C)(=O)=O)CC4)cc3)nn(C)c2C1 (single isomer, unassigned) [Example 1-47, (−)-7,9-dimethyl-11-({4-[4-(methylsulfonyl)piperazin-1-yl]phenoxy}methyl)-1-[3-(naphthalen-1-yloxy)propyl]-4,5,6,7,8,9-hexahydropyrazolo[3′,4′:7,8][1,5]diazecino[9,10,1-hi]indole-2-carboxylic Acid]	–	0.0193	–	–	–	–	–	–	–	9.54 µM	3.91e-06	1.08e-05 M	3.99e-06	9.12	8.35e-06	6.4e-06	1.32e-05 M
Cc1c2c(nn1C)COCCCCn1c(C(=O)O)c(CCCOc3cccc4ccccc34)c3cccc-2c31 (single isomer, unassigned; enantiomer 2) [Example 1-38, (−)-2,3-dimethyl-7-[3-(naphthalen-1-yloxy)propyl]-2,10,11,12,13,15-hexahydropyrazolo[4′,3′:9,10][1,6]oxazacycloundecino[8,7,6-hi]indole-8-carboxylic Acid (Enantiomer 2)]	–	0.0751	–	–	–	–	–	–	–	> 33 µM	2.3e-05	> 3.3e-05 M	1.49e-05	> 33	3.22e-05	> 3.3e-05	> 3.3e-05 M
CCOCc1nn(C)c2c1-c1cccc3c(CCCOc4cccc5ccccc45)c(C(=O)O)n(c13)CCCCOC2 (single isomer, unassigned; enantiomer 1) [Example 169, 3-(ethoxymethyl)-1-methyl-7-[3-(naphthalen-1-yloxy)propyl]-1,10,11,12,13,15-hexahydropyrazolo[4′3′:9,10][1,6]oxazacycloundecino[8,7,6-hi]indole-8-carboxylic Acid (Enantiomer 1)]	–	0.0184	–	–	–	2.01e-05	–	2.04e-05	2.02e-05	> 33 µM	2.68e-05	1.74e-05 M and > 3.3e-05 M	2.02e-05	> 33	–	–	> 3.3e-05 M
CCOCc1nn(C)c2c1-c1cccc3c(CCCOc4cccc5c4CCCC5)c(C(=O)O)n(c13)CCCCOC2 (single isomer, unassigned; enantiomer 1) [Example 171, 3-(ethoxymethyl)-1-methyl-7-[3-(5,6,7,8-tetrahydronaphthalen-1-yloxy)propyl]-1,10,11,12,13,15-hexahydropyrazolo[4′,3′:9,10][1,6]oxazacycloundecino[8,7,6-hi]indole-8-carboxylic Acid (Enantiomer 1)]	–	0.00268	2.24e-06	–	–	–	–	–	> 3.3e-05	13.4 µM	–	5.08e-06 M	6.45e-06	6.48	1.23e-05	–	1.39e-05 M
CN1CCCn2c(C(=O)O)c(CCCOc3cccc4ccccc34)c3cccc(c32)-c2c(COc3ccc(C4CCOCC4)cc3)nn(C)c2C1 (single isomer, unassigned) [Example 1-58, (+)-7,9-dimethyl-1-[3-(naphthalen-1-yloxy)propyl]-11-{[4-(tetrahydro-2H-pyran-4-yl)phenoxy]methyl}-4,5,6,7,8,9-hexahydropyrazolo[3′,4′:7,8][1,5]diazecino[9,10,1-hi]indole-2-carboxylic Acid]	17.3	0.0189	1.17e-05	1.2e-05	7.32e-06	2.14e-05	12.2	2.01e-05	1.31e-05	–	–	–	–	–	–	–	–
